Assay results as given in patent publication EP0388528B1, “Carboximidamide derivatives” (KIRIN BEER KABUSHIKI KAISHA, priority 1988, dated 1990).

What was measured:
[1] = system: isolated rat aortae; assay: Vasorelaxing effect on the isolated rat aortae (Referential Example 1)-1); conditions: inhibition of contraction induced by 40 mM KCl
Procedure: (§1) The compounds of the present invention were tested for their physiological activities by measuring the tension of isolated rat aortae isometrically.
Thoracic aortae obtained from male Wistar rats (weighing 250-350 g) were cut into ring segments about 3 mm long. The ring preparation was placed in an organ bath filled with 10 ml of Krebs-Ringer solution that was maintained at 37°C and gassed with 95% O₂ - 5% CO₂.
The preparation in the organ bath was allowed to equilibrate under resting tension of 1 g. After equilibration period, the solution in the organ bath was replaced with an isotonic solution containing 40 mM KCl to contract the preparation.
(§2) After the contraction induced by KCl had reached plateau, the concentration-response relationship for the test compound was determined by means of cumulative addition.
(§3) The relaxation response of the test compounds was expressed as the percent inhibition of the contraction induced by KCl, and the IC₅₀ value, which is a concentration required for inhibiting the contraction induced by KCl to an extent of 50%, was calculated by the Probit method from the concentration-response curve.

[2] = system: potassium channel; assay: Potassium channel activating effect (86Rb efflux from rat thoracic aorta); conditions: compound 10⁻⁴ M for 8 minutes, percent of the efflux before application
Procedure: Male Wistar rats (weighing 250-350 g) were dehematized to death, and thoracic aortae were rapidly isolated. The aorta was opened along the longitudinal axis to prepare a flat sheet. The preparation was loaded with ⁸⁶Rb in the Krebs-Ringer solution which contained ⁸⁶Rb in the concentration of 10 µCi/ml and was gassed with 95% O₂ - 5% CO₂ at 37°C for 2 hours. The preparation was then transferred to a Krebs-Ringer solution not containing ⁸⁶Rb, and washed to remove excess radioactivity for 18 minutes by refreshing the solution every 2 minutes. Finally the preparation was placed into a Krebs-Ringer solution containing each compound (10⁻⁴ M) for 8 minutes.
The amount of ⁸⁶Rb efflux from the preparation in each period was determined with a γ-counter.
The increment in efflux rate during the application of the compound was expressed as percent of the efflux before the application of the compound.

[3] = system: spontaneous hypertensive rats (SHR); assay: Hypotensive effect on spontaneous hypertensive rats (intravenously) (Referential Example 1)-3); assay type: in vivo; conditions: Rattus norvegicus, iv, anesthetized SHR, dose descending mean blood pressure by 20%; read-out: ED₂₀ (mg/kg, i.v.)
Procedure: Rats were anesthetized with urethane-α-chloralose (1 g/kg - 25 mg/kg; intraperitoneally). Mean blood pressure was measured by a pressure transducer through a cannula inserted into the carotid artery. The compound was cumulatively administered every 30 minutes through the cannula inserted into the jagular vein. The change in blood pressure was expressed as percent of the blood pressure before the administration of the compound. And the ED₂₀ value, which was the dose required for descending blood pressure to an extent of 20%, was calculated from the dose-response curve.

[4] = system: isolated rat aortae; assay: Vasorelaxing effect on the isolated rat aortae (Referential Example 2)-1); conditions: inhibition of contraction induced by 40 mM KCl, read-out: IC₅₀ Value
Procedure: as §1
Thoracic aortae obtained from male Wistar rats (weighing 250-350 g) were cut into ring segments about 3 mm long. The ring preparation was placed in an organ bath filled with 10 ml of Krebs-Ringer solution which was maintained at 37°C and gassed with 95% O₂ - 5% CO₂.
The preparation in the organ bath was allowed to equilibrate under resting tension 1 g. After equilibration period, the solution in the organ bath was replaced with an isotonic solution containing 40 mM KCl to contract the preparation.
as §2, §3

Structure (SMILES)	IC50 [1] [µM]	further results
N#CNC(=NCCc1ccc(NCc2ccccc2)cc1)c1cccnc1 [(31), N-cyano-N'-[2-(4-benzylaminophenyl)ethyl]-3-pyridinecarboximidamide]	16	–
N#CNC(=NCC(O[N+](=O)[O-])c1ccc([N+](=O)[O-])cc1)c1cccnc1 (stereo not drawn) [(32), N-cyano-N'-[2-(4-nitrophenyl)-2-nitroxyethyl]-3-pyridinecarboximidamide]	78	–
N#CNC(=NC(c1ccccc1)c1ccccc1)c1cccnc1 [(34), N-cyano-N'-diphenylmethyl-3-pyridinecarboximidamide]	38	–
N#CNC(=NC(Cc1ccccc1)c1ccccc1)c1cccnc1 (stereo not drawn) [(35), N-cyano-N'-(1,2-diphenylethyl)-3-pyridinecarboximidamide]	18	–
N#CNC(=NCC(c1ccccc1)c1ccccc1)c1cccnc1 [(36), N-cyano-N'-(2,2-diphenylethyl)-3-pyridinecarboximidamide]	16	–
N#CNC(=NCCC(c1ccccc1)c1ccccc1)c1cccnc1 [(37), N-cyano-N'-(3,3-diphenylpropyl)-3-pyridinecarboximidamide]	28	–
N#CNC(=NCCc1ccc(OCc2ccccc2)c(OCc2ccccc2)c1)c1cccnc1 [(39), N-cyano-N'-[2-(3,4-dibenzyloxyphenyl)ethyl]-3-pyridinecarboximidamide]	48	–
COc1ccc(NC(=NC#N)c2cccnc2)c(OC)n1 [(40), N-cyano-N'-3-(2,6-dimethoxypyridine)-3-pyridinecarboximidamide]	40	–
N#CNC(=NCC(O[N+](=O)[O-])c1ccc([N+](=O)[O-])cc1)c1ccncc1 (stereo not drawn) [(50), N-cyano-N'-[2-(4-nitrophenyl)-2-nitroxyethyl]-4-pyridinecarboximidamide]	14	–
CC(N=C(NC#N)c1ccncc1)C(O[N+](=O)[O-])c1ccc([N+](=O)[O-])cc1 (stereo not drawn) [(51), N-cyano-N'-[1-methyl-2-(4-nitrophenyl)-2-nitroxyethyl]-4-pyridinecarboximidamide]	13	–
N#CN=C(NCCc1ccccc1)c1ccc(Cl)nc1 [(53), N-cyano-N'-(2-phenylethyl)-3-(6-chloropyridine)carboximidamide]	77	–
N#CNC(=NCCc1ccccc1)c1cnc2ccccc2c1 [(60), N-cyano-N′-(2-phenylethyl)-3-quinolinecarboximidamide]	–	IC50 [4]: 6.1 µM
N#CNC(=NCCO[N+](=O)[O-])c1cnccn1 [(61), N-cyano-N′-(2-nitroxyethyl)pyrazinecarboximidamide]	–	IC50 [4]: 53 µM
N#CNC(=NCCc1ccccc1)c1ccco1 [(63), N-cyano-N′-(2-phenylethyl)-2-furancarboximidamide]	–	IC50 [4]: 18 µM
N#CNC(=NCCO[N+](=O)[O-])c1ccoc1 [(64), N-cyano-N′-(2-nitroxyethyl)-3-furancarboximidamide]	–	IC50 [4]: 8 µM
N#CNC(=NCCc1ccccc1)c1ccoc1 [(65), N-cyano-N′-(2-phenylethyl)-3-furancarboximidamide]	–	IC50 [4]: 94 µM
N#CNC(=NCCc1ccccc1)c1cccs1 [(67), N-cyano-N′-(2-phenylethyl)-2-thiophenecarboximidamide]	–	IC50 [4]: 19 µM
N#CNC(=NCCc1ccccc1)c1ccsc1 [(68), N-cyano-N′-(2-phenylethyl)-3-thiophenecarboximidamide]	–	IC50 [4]: 92 µM
N#CNC(=NCCc1ccccc1)c1ccc(C#N)cc1 [(69), N-cyano-N′-(2-phenylethyl)-4-cyanobenzenecarboximidamide]	–	IC50 [4]: 40 µM
CSC(=NC#N)NCCO[N+](=O)[O-] [(70), 3-Cyano-2-methyl-1-(2-nitroxyethyl)-isothiourea]	–	IC50 [4]: 4.3 µM
CN(C)c1ccc(CN=C(NC#N)c2cccnc2)cc1 [Compound (20), N-cyano-N'-(4-dimethylaminobenzyl)-3-pyridinecarboximidamide]	78	–
N#CNC(=NCC(OCc1ccccc1)c1ccccc1)c1cccnc1 (stereo not drawn) [Compound (38), N-cyano-N'-(2-benzyloxy-2-phenylethyl)-3-pyridinecarboximidamide]	68	–
N#CNC(=NCCO[N+](=O)[O-])c1cnc2ccccc2c1 [Compound (59), N-cyano-N′-(2-nitroxyethyl)-3-quinolinecarboximidamide]	–	IC50 [4]: 24 µM
N#CN=C(N)c1cccnc1 [N-cyano-3-pyridine-carboxyimidamide, reference compound]	40000	–

Further lines, with some results ahead:

IC50 [1] [µM]	Structure (SMILES)	further results
66	N#CNC(=NCc1ccccc1)c1cccnc1 [(17), N-cyano-N'-benzyl-3-pyridinecarboximidamide]	Increment of Efflux (%) [2]: 135.41%; ED20 [3]: 0.25 mg/kg
40	N#CNC(=NCCc1ccccc1)c1cccnc1 [(27), N-cyano-N'-(2-phenylethyl)-3-pyridinecarboximidamide]	Increment of Efflux (%) [2]: 206.61%; ED20 [3]: 0.074 mg/kg
38	N#CNC(=NCCc1ccccc1Cl)c1cccnc1 [(29), N-cyano-N'-[2-(2-chlorophenyl)ethyl]-3-pyridinecarboximidamide]	ED20 [3]: 0.013 mg/kg
95	N#CNC(=NCCCc1ccccc1)c1cccnc1 [(33), N-cyano-N'-(3-phenylpropyl)-3-pyridinecarboximidamide]	–
12	N#CNC(=NCCO[N+](=O)[O-])c1ccncc1 [(41), N-cyano-N'-(2-nitroxyethyl)-4-pyridinecarboximidamide]	Increment of Efflux (%) [2]: 126.88%; ED20 [3]: 0.13 mg/kg
20	N#CNC(=NCCCO[N+](=O)[O-])c1ccncc1 [(42), N-cyano-N'-(3-nitroxypropyl)-4-pyridinecarboximidamide]	–
52	N#CNC(=Nc1ccccc1)c1ccncc1 [(43), N-cyano-N'-phenyl-4-pyridinecarboximidamide]	–
19	N#CNC(=NCc1ccc(Cl)c(Cl)c1)c1ccncc1 [(44), N-cyano-N'-(3,4-dichlorobenzyl)-4-pyridinecarboximidamide]	–
49	CSc1ccc(CN=C(NC#N)c2ccncc2)cc1 [(45), N-cyano-N'-(4-methylthiobenzyl)-4-pyridinecarboximidamide]	–
30	N#CNC(=NCc1cccc(OCc2ccccc2)c1)c1ccncc1 [(46), N-cyano-N'-(3-benzyloxybenzyl)-4-pyridinecarboximidamide]	–
40	N#CNC(=NCCc1ccc(Cl)cc1)c1ccncc1 [(47), N-cyano-N'-[2-(4-chlorophenyl)ethyl]-4-pyridinecarboximidamide]	–
73	COc1ccccc1CCN=C(NC#N)c1ccncc1 [(48), N-cyano-N'-[2-(2-methoxyphenyl)ethyl]-4-pyridinecarboximidamide]	–
62	N#CNC(=NCCSc1ccccc1)c1ccncc1 [(49), N-cyano-N'-(2-phenylthioethyl)-4-pyridinecarboximidamide]	–
11	N#CN=C(NCCO[N+](=O)[O-])c1ccc(Cl)nc1 [(52), N-cyano-N'-(2-nitroxyethyl)-3-(6-chloropyridine)carboximidamide]	–
4.6	N#CNC(=NCCO[N+](=O)[O-])c1ccccn1 [Compound (1), N-cyano-N'-(2-nitroxyethyl)-2-pyridinecarboximidamide]	ED20 [3]: 0.037 mg/kg
180	N#CN=C(N)c1ccncc1 [N-cyano-4-pyridine-carboxyimidamide, reference compound]	–
